44 compounds from patent US20240217966A1, “PHARMACEUTICAL COMPOSITION CONTAINING GLP-1 RECEPTOR AGONIST HAVING FUSED RING” (Shionogi & Co., Ltd., priority 2021, published 2024) can be followed below.

Each structure is given as a SMILES string.

The experiment addresses T1, Human GLP-1 receptor (Homo sapiens, UniProt P43220).
T1 construct: expressed in transfected cells
Kind of experiment: Measurement of GLP-1 receptor agonist activity (cAMP assay). The note with it: for Emax: CHO-K1, hGLP-1R/CHO-K1 cells, cAMP, 100% = human GLP-1 (7-36) at 2 nM, 0% = DMSO only, read-out: Emax(%); for EC50: hGLP-1R/CHO-K1 cells, cAMP increase, 37° C. 1 hour. It counts as cell-based. The gist of the method: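 hGLP-1R/CHO-K1 cells in HBSS with 0.1% BSA, 20 mM HEPES, 0.1 mM IBMX and 0.2 mM RO20-1724 exposed to compound plus forskolin (400 μM stock) for 1 h at 37 °C. Intracellular cAMP read by HTRF (cAMP-d2/anti-cAMP cryptate, 1 h at room temperature).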
A general note: cAMP levels reflect the balance of adenylyl cyclase and phosphodiesterase activity.

T1 sequence (P43220 24-463): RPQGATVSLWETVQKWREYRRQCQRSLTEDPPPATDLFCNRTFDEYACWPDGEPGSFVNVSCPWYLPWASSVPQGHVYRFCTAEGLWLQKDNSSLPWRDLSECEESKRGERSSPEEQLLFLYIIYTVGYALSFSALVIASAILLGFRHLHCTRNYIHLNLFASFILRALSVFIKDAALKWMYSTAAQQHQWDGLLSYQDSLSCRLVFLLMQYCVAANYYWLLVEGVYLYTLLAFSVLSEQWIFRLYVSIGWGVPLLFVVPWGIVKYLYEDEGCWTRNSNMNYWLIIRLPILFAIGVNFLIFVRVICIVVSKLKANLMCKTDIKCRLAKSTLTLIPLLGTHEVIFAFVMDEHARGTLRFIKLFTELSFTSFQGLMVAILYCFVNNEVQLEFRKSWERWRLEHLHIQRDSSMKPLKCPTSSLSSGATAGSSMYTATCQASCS

`O=C(O)c1ccc2nc(CN3CCc4cc(C(F)(F)F)c(OCc5ccccc5)cc4C3)n(C[C@@H]3CCO3)c2c1` [Compound I-156]: the Emax came out at 89% and a half-maximal response (EC50) required 36.8 nM.

For the compound `N#Cc1cc(Cl)ccc1COc1cc2c(cc1C(F)(F)F)CCN(Cc1nc3ccc(C(=O)O)cc3n1C[C@@H]1CCO1)C2` [Compound I-157], the Emax was determined as 109% and the concentration giving a half-maximal response (EC50) worked out at 4.29 nM.

Take `O=C(O)c1ccc2nc(CN3CCc4cc(C(F)(F)F)c(OCc5c(F)cccc5Cl)cc4C3)n(C[C@@H]3CCO3)c2c1` [Compound I-158]: the Emax came out at 94% and the EC50 came to 16.3 nM.

For `Cc1cc(F)cc(C)c1COc1cc2c(cc1C(F)(F)F)CCN(Cc1nc3ccc(C(=O)O)cc3n1C[C@@H]1CCO1)C2` [Compound I-159], the Emax came to 92.3% and the EC50 came to 13.3 nM.

As for `C[C@H]1c2cc(OCc3ccc(Cl)cc3)c(C(F)(F)F)cc2CCN1Cc1nc2ccc(C(=O)O)cc2n1C[C@@H]1CCO1` [Compound I-161], the Emax came to 110% and the half-maximal effective concentration (EC50) stood at 1.28 nM.

Consider `Cc1ccc(COc2cc3c(cc2C(F)(F)F)CCN(Cc2nc4ccc(C(=O)O)cc4n2C[C@@H]2CCO2)[C@H]3C)cc1` [Compound I-162], for which the Emax turned out to be 106% and the EC50 is 1.37 nM.

Take `C[C@H]1c2cc(OCc3ccc(C4CC4)cc3)c(C(F)(F)F)cc2CCN1Cc1nc2ccc(C(=O)O)cc2n1C[C@@H]1CCO1` [Compound I-163]: the maximal effect (Emax) was 131% and it took 10.6 nM to reach a half-maximal effect (EC50).

In the case of `COc1cc(Cl)ccc1COc1cc2c(cc1C(F)(F)F)CCN(Cc1nc3ccc(C(=O)O)cc3n1C[C@@H]1CCO1)[C@H]2C` [Compound I-164], the maximal effect (Emax) was determined as 104% and it took 0.302 nM to reach a half-maximal effect (EC50).

As for `C[C@H]1c2cc(OCc3ccccc3Cl)c(C(F)(F)F)cc2CCN1Cc1nc2ccc(C(=O)O)cc2n1C[C@@H]1CCO1` [Compound I-165], the Emax is 103% and the EC50 came out at 2.74 nM.

Consider `C[C@H]1c2cc(OCc3ccc(F)cc3F)c(C(F)(F)F)cc2CCN1Cc1nc2ccc(C(=O)O)cc2n1C[C@@H]1CCO1` [Compound I-166], for which the Emax amounted to 111% and a half-maximal effect (EC50) was put at 1.23 nM.

In the case of `C[C@H]1c2cc(OCc3ccc(Cl)cc3Cl)c(C(F)(F)F)cc2CCN1Cc1nc2ccc(C(=O)O)cc2n1C[C@@H]1CCO1` [Compound I-167], the Emax was 102% and it took 0.707 nM to reach a half-maximal effect (EC50).

Consider `C[C@H]1c2cc(OCc3ccc(OC(F)F)cc3F)c(C(F)(F)F)cc2CCN1Cc1nc2ccc(C(=O)O)cc2n1C[C@@H]1CCO1` [Compound I-168], for which the Emax was 104% and the response was half-maximal at 2.24 nM (EC50).

As to `C[C@H]1c2cc(OCc3cc(F)c(Cl)cc3F)c(C(F)(F)F)cc2CCN1Cc1nc2ccc(C(=O)O)cc2n1C[C@@H]1CCO1` [Compound I-169], the maximum response (Emax) came to 101% and a half-maximal response (EC50) required 1.21 nM.

On to `C[C@H]1c2cc(OCc3ccc(C#N)cc3F)c(C(F)(F)F)cc2CCN1Cc1nc2ccc(C(=O)O)cc2n1C[C@@H]1CCO1` [Compound I-170], for which the Emax was 120% and the EC50 stood at 1.24 nM.

With `COc1ccc(COc2cc3c(cc2C(F)(F)F)CCN(Cc2nc4ccc(C(=O)O)cc4n2C[C@@H]2CCO2)[C@H]3C)cc1` [Compound I-171], the maximum response (Emax) is 98.7% and the response was half-maximal at 2.37 nM (EC50).

In the case of `C[C@H]1c2cc(OCc3ccc(Cl)cn3)c(C(F)(F)F)cc2CCN1Cc1nc2ccc(C(=O)O)cc2n1C[C@@H]1CCO1` [Compound I-172], the Emax was 113% and the response was half-maximal at 0.946 nM (EC50).

Take `Cc1csc(COc2cc3c(cc2C(F)(F)F)CCN(Cc2nc4ccc(C(=O)O)cc4n2C[C@@H]2CCO2)[C@H]3C)n1` [Compound I-173]: the Emax turned out to be 102% and the response was half-maximal at 2.3 nM (EC50).

On to `C[C@H]1c2cc(OCc3ccc(Cl)cc3F)c(Cl)cc2CCN1Cc1nc2ccc(C(=O)O)cc2n1C[C@@H]1CCO1` [Compound I-174], for which the Emax is 109% and the midpoint of the response, the EC50, lay at 1.58 nM.

Consider `COc1ccc(COc2cc3c(cc2C(F)(F)F)CCN(Cc2nc4ccc(C(=O)O)nc4n2C[C@@H]2CCO2)[C@H]3C)cc1` [Compound I-175], for which the Emax came out at 101% and the response was half-maximal at 3.58 nM (EC50).

As to `C[C@H]1c2cc(OCc3ccc(Cl)cn3)c(C(F)(F)F)cc2CCN1Cc1nc2ccc(C(=O)O)nc2n1C[C@@H]1CCO1` [Compound I-176], the Emax stood at 98.3% and the half-maximal effective concentration (EC50) is 2.12 nM.

Regarding `Cc1csc(COc2cc3c(cc2C(F)(F)F)CCN(Cc2nc4ccc(C(=O)O)nc4n2C[C@@H]2CCO2)[C@H]3C)n1` [Compound I-177], the Emax worked out at 107% and the EC50 is 3.09 nM.

As for `C[C@H]1c2cc(OCc3ccc(Cl)cc3)c(C(F)(F)F)cc2CCN1Cc1nc2ccc(C(=O)O)nc2n1C[C@@H]1CCO1` [Compound I-178], the Emax stood at 111% and the EC50 amounted to 1.97 nM.

On to `Cc1ccc(COc2cc3c(cc2C(F)(F)F)CCN(Cc2nc4ccc(C(=O)O)nc4n2C[C@@H]2CCO2)[C@H]3C)cc1` [Compound I-179], for which the Emax is 99% and the EC50 was determined as 1.88 nM.

Turning to `C[C@H]1c2cc(OCc3ccc(C4CC4)cc3)c(C(F)(F)F)cc2CCN1Cc1nc2ccc(C(=O)O)nc2n1C[C@@H]1CCO1` [Compound I-180], the maximal response (Emax) worked out at 97.3% and the concentration giving a half-maximal response (EC50) was determined as 8.94 nM.

With `COc1cc(Cl)ccc1COc1cc2c(cc1C(F)(F)F)CCN(Cc1nc3ccc(C(=O)O)nc3n1C[C@@H]1CCO1)[C@H]2C` [Compound I-181], the maximal effect (Emax) was 116% and the concentration giving a half-maximal response (EC50) worked out at 0.374 nM.

For `C[C@H]1c2cc(OCc3ccccc3Cl)c(C(F)(F)F)cc2CCN1Cc1nc2ccc(C(=O)O)nc2n1C[C@@H]1CCO1` [Compound I-182], the Emax was 126% and the response was half-maximal at 3.31 nM (EC50).

With `C[C@H]1c2cc(OCc3ccc(F)cc3F)c(C(F)(F)F)cc2CCN1Cc1nc2ccc(C(=O)O)nc2n1C[C@@H]1CCO1` [Compound I-183], the Emax is 98% and the EC50 was 2.54 nM.

As for `C[C@H]1c2cc(OCc3ccc(OC(F)F)cc3F)c(C(F)(F)F)cc2CCN1Cc1nc2ccc(C(=O)O)nc2n1C[C@@H]1CCO1` [Compound I-184], the maximal effect (Emax) turned out to be 98% and the EC50 amounted to 4.75 nM.

Consider `C[C@H]1c2cc(OCc3cc(F)c(Cl)cc3F)c(C(F)(F)F)cc2CCN1Cc1nc2ccc(C(=O)O)nc2n1C[C@@H]1CCO1` [Compound I-185], for which the maximal effect (Emax) is 106% and it took 2.2 nM to reach a half-maximal effect (EC50).

In the case of `C[C@H]1c2cc(OCc3ccc(C#N)cc3F)c(C(F)(F)F)cc2CCN1Cc1nc2ccc(C(=O)O)nc2n1C[C@@H]1CCO1` [Compound I-186], the Emax came to 111% and the EC50 came out at 3.28 nM.

On to `C[C@H]1c2cc(OCc3ccc(F)cc3)c(C(F)(F)F)cc2CCN1Cc1nc2ccc(C(=O)O)nc2n1C[C@@H]1CCO1` [Compound I-187], for which the Emax was 105% and the EC50 stood at 4.2 nM.

On to `C[C@H]1c2cc(OCc3c(F)cc(F)cc3F)c(C(F)(F)F)cc2CCN1Cc1nc2ccc(C(=O)O)nc2n1C[C@@H]1CCO1` [Compound I-188], for which the Emax is 90.3% and it took 1.79 nM to reach a half-maximal effect (EC50).

`COc1cc(C(=O)O)cc2c1nc(CN1CCc3cc(C(F)(F)F)c(OCc4ccc(Cl)cc4F)cc3[C@@H]1C)n2C[C@@H]1CCO1` [Compound I-189]: the maximum response (Emax) was 122% and a half-maximal effect (EC50) was put at 0.0651 nM.

Regarding `COc1ccc(COc2cc3c(cc2C(F)(F)F)CCN(Cc2nc4ccc(C(=O)O)c(F)c4n2C[C@@H]2CCO2)[C@H]3C)cc1` [Compound I-190], the Emax was 109% and a half-maximal effect (EC50) was put at 1.08 nM.

On to `C[C@H]1c2cc(OCc3ccc(Cl)cn3)c(C(F)(F)F)cc2CCN1Cc1nc2ccc(C(=O)O)c(F)c2n1C[C@@H]1CCO1` [Compound I-191], for which the Emax is 130% and the response was half-maximal at 0.644 nM (EC50).

Take `Cc1csc(COc2cc3c(cc2C(F)(F)F)CCN(Cc2nc4ccc(C(=O)O)c(F)c4n2C[C@@H]2CCO2)[C@H]3C)n1` [Compound I-192]: the maximum response (Emax) turned out to be 123% and the EC50 stood at 1.2 nM.

Take `C[C@H]1c2cc(OCc3ccc(Cl)cc3)c(C(F)(F)F)cc2CCN1Cc1nc2ccc(C(=O)O)c(F)c2n1C[C@@H]1CCO1` [Compound I-193]: the Emax was 115% and it took 0.73 nM to reach a half-maximal effect (EC50).

As for `Cc1ccc(COc2cc3c(cc2C(F)(F)F)CCN(Cc2nc4ccc(C(=O)O)c(F)c4n2C[C@@H]2CCO2)[C@H]3C)cc1` [Compound I-194], the Emax was determined as 111% and a half-maximal response (EC50) required 0.741 nM.

Consider `C[C@H]1c2cc(OCc3ccc(C4CC4)cc3)c(C(F)(F)F)cc2CCN1Cc1nc2ccc(C(=O)O)c(F)c2n1C[C@@H]1CCO1` [Compound I-195], for which the maximal effect (Emax) amounted to 96.3% and the EC50 was determined as 3.29 nM.

For `COc1cc(Cl)ccc1COc1cc2c(cc1C(F)(F)F)CCN(Cc1nc3ccc(C(=O)O)c(F)c3n1C[C@@H]1CCO1)[C@H]2C` [Compound I-196], the Emax was 106% and the EC50 turned out to be 0.136 nM.

In the case of `C[C@H]1c2cc(OCc3ccccc3Cl)c(C(F)(F)F)cc2CCN1Cc1nc2ccc(C(=O)O)c(F)c2n1C[C@@H]1CCO1` [Compound I-197], the Emax was 119% and a half-maximal response (EC50) required 1.33 nM.

Turning to `C[C@H]1c2cc(OCc3ccc(F)cc3F)c(C(F)(F)F)cc2CCN1Cc1nc2ccc(C(=O)O)c(F)c2n1C[C@@H]1CCO1` [Compound I-198], the Emax is 128% and it took 1.17 nM to reach a half-maximal effect (EC50).

Consider `C[C@H]1c2cc(OCc3ccc(OC(F)F)cc3F)c(C(F)(F)F)cc2CCN1Cc1nc2ccc(C(=O)O)c(F)c2n1C[C@@H]1CCO1` [Compound I-199], for which the Emax amounted to 128% and the EC50 was found to be 0.86 nM.

On to `C[C@H]1c2cc(OCc3cc(F)c(Cl)cc3F)c(C(F)(F)F)cc2CCN1Cc1nc2ccc(C(=O)O)c(F)c2n1C[C@@H]1CCO1` [Compound I-200], for which the Emax is 102% and it took 0.577 nM to reach a half-maximal effect (EC50).

Usually Emax stands for the size of the effect at its maximum, as opposed to the concentration needed. In general, EC50 refers to the concentration that produces a half-maximal response. Low readings indicate a more potent agent, high ones a less potent agent.
